Data on 14 molecules can be found in US20090215859A1, “Compositions and methods for modulating dhr96” (priority 2004, published 2009).

The structures appear in SMILES notation. “Also recorded” adds a separate entry of the source.

Data set [1] has as its system DHR38. The settings on record: cultured larval organs; cited from earlier work.
For data set [2] the following is noted: solvent or supplied form; cited from earlier work.
The test system of data set [3] is C. elegans nhr-8 mutant. The note with it: mutation in the nuclear receptor nhr-8 gene; cited from earlier work.
Data set [4] has as its system Cyp6g1. Put plainly: Cyp6g1 induction by DDT in Canton S flies. It is filed as in vivo, Drosophila melanogaster. The settings on record: one experiment. The source says:
Validation can be conducted on selected genes, covering the different classes of detoxification pathways as well as new players that identified. Similar microarray studies using at least two other compounds, depending on which compounds show an effect in the viability and behavioral assays. It will be confirmed that wild type Canton S flies show a response to DDT using Cyp12d1 and other P450 genes as probes for northern blot hybridization. […] Other pesticides can also be surveyed for effects on a select group of Cyp gene targets to identify other compounds for use in comparative microarray profiling. […] Determining the transcriptional response to more than one xenobiotic compound can provide an initial impression of how insects respond to different toxins in their environment. […] Alternatively, the genetic response may be fine-tuned to combat specific xenobiotic compounds.

For data set [5], the system named is wild type (Canton S) and DHR96 mutant adult flies. Put plainly: Toxicity assay: adult flies exposed to DDT in 5% sucrose on filter paper, survival scored. It is filed as in vivo, Drosophila melanogaster. The method, then: A time course is shown. 20 wild type or DHR96^E25 mutant flies were treated with a high concentration of DDT (100 ng/μl) and assayed for survival every hour up to 10 hours. Each assay (A+B) was done in triplicate to determine the standard deviation as shown by the error bars.
(§1) A dose response curve is shown. Twenty wild type or DHR96^E25 mutant flies were exposed to eight DDT concentrations, from 0.78 to 100 ng/μl, and then scored for survival 10 hours later. A similar test was conducted for sensitivity to tebufenizide (FIG. 11C) using larvae raised on food supplemented with the drug.
Adult flies were raised on standard cornmeal/agar food and starved overnight under humid conditions at 25 0 C before treatment with DDT. A DDT stock solution was prepared by dissolving crystalline DDT (Sigma) in 100% ethanol. Appropriate DDT dilutions were made by diluting the DDT stock with 5% sucrose and pipetting 275 μl of the solution onto a strip of Whatman filter paper inside a small glass scintillation vial. Twenty adult flies were placed in each vial which was plugged with cotton. Mortality was scored 10 hours later at room temperature. For each DDT concentration, three replicates, each of twenty adult flies, were used. For the time course assay, 100 ng/μl of DDT was used and mortality scored every hour for 10 hours.
As a test of DHR96 acting in a xenobiotic pathway, DHR96 mutants were tested for sensitivity to the pesticide DDT. Adult wild type flies (Canton S) and DHR96^16A were exposed or DHR96^E25 flies to varying concentrations of DDT and recorded survival rates after a fixed time.
(§2) The adult Canton S flies and the DHR96E25 outcrossed lines were exposed to varying concentrations of drug and recorded effects after a fixed time (FIG. 11). DDT was assayed by starving young healthy adult flies overnight and then transferring them to vials, in three groups of 20 flies each, with filter paper soaked with 5% sucrose alone or 5% sucrose and DDT at different concentrations. The number of living flies was scored after 23 hours. […] Tebufenozide was administered to larvae in the food, and the number of surviving adult flies was scored.

Data set [6] has as its system Cyp6a2 and Cyp6a8 transcription. Put plainly: Northern blot hybridization of Cyp transcription in adult flies treated with phenobarbital. The note with it: adult flies treated with 0.3%, 1%, and 3% phenobarbital.
Protocol: Each treatment is done in triplicate. RNA is extracted from each set of animals, purified by TRIzol extraction (Gibco BRL) followed by RNeasy column chromatography (Qiagen), and ethanol precipitation. The RNA is then labeled and hybridized to Affymetrix GeneChip® Drosophila Genome 2.0 arrays designed to detect 18,500 Drosophila transcripts. Data is then analyzed using DChip 1.3 (http://biosun1.harvard.edu/complab/dchip/) and Significance Analysis of Microarrays (SAM).
Data set [7] relates to Canton S and outcrossed DHR96E25 mutant larvae. Put plainly: Tebufenozide administered to larvae in the food, surviving adult flies scored. It is filed as in vivo, Drosophila melanogaster. The note with it: larvae raised on food supplemented with the drug. The procedure: as §1, §2
The above assays are for testing the effect of xenobiotics on adult flies. Compounds can also be tested for their larvicidal effects by administering them in the food to staged populations of larvae (Grant et al. Bull. Envir. Contam. Tox. 69:35-40, 2002). DHR96 and Canton S control flies are maintained on normal cornmeal/molasses agar supplemented with yeast. Egg lays are collected overnight from these stocks and used to innoculate fresh vials of food supplemented with a specific concentration of the drug to be tested. […]

Data set [8] concerns the target T1, GAL4-DHR96 fusion protein (Drosophila melanogaster, UniProt Q24143).
T1 construct: expressed in transfected cells; host or cells: transgenic Drosophila third instar larvae (hs-GAL4-DHR96; UAS-lacZ), dissected organs in culture
Put plainly: GAL4-LBD activation assay in cultured third instar larval organs (UAS-lacZ, Xgal staining). It is filed as cell-based. The note with it: organs of heat-induced hs-GAL4-DHR96; UAS-lacZ third instar larvae cultured with 1×10^−5 M tebufenozide. The source says: A gene fusion of the GAL4 DNA binding domain (DBD) and DHR96 ligand binding domain (LBD) is expressed upon heat-induction of the hsp70 promoter. The resultant fusion protein can bind to GAL4 response elements (UAS) on a seperate transgenic construct, but will only activate lacZ transcription in the presence of an appropriate ligand and/or co-factors (a ligand is shown). β-galactosidase expression is detected as the substrate from an Xgal staining reaction.
Third instar larvae were heat-treated to induce GAL4-DHR96 expression, dissected, and organs were cultured in the presence of 1×10^−5 M tebufenozide. UAS-lacZ reporter gene expression was detected by Xgal staining. […]
DHR96 activation can be assayed for by using a method established to follow the activation status of a nuclear receptor ligand binding domain (LBD) in a developing animal. […] Expression of β-galactosidase can be detected by histochemical staining using X-gal as a substrate, generating a blue dye (FIGS. 13, 14). […]
An advantage of the GAL4-LBD system is that it can be used in tissues dissected from transgenic larvae to test specific compounds for their ability to activate the fusion protein. […] A similar assay can be used to test the ability of xenobiotic compounds to activate the GAL4-DHR96 fusion protein in cultured larval organs, using either UAS-lacZ or UAS-GFP as a readout. […]

Setting [9] is: living flies scored after 23 hours.

T1 sequence (Q24143 99-723): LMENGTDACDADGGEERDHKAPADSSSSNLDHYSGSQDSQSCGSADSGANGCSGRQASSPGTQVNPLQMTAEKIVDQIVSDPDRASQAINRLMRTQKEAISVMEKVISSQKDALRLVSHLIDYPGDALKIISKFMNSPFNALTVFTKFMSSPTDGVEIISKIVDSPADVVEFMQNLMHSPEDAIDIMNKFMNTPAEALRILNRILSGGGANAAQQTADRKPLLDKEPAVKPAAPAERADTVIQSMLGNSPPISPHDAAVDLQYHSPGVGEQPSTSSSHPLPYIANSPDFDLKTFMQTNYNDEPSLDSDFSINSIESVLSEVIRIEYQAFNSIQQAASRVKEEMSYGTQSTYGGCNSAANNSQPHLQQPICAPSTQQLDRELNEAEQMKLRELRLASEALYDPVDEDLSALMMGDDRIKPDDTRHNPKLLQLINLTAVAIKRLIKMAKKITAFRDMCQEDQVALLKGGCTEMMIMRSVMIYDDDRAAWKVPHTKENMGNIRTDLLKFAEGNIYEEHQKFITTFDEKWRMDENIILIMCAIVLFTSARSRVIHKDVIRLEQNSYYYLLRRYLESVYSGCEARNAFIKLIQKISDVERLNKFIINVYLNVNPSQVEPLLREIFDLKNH

For `CC(C)(O)CC[C@@H](O)[C@](C)(O)[C@H]1CC[C@@]2(O)C3=CC(=O)[C@@H]4C[C@H](O)[C@@H](O)C[C@]4(C)[C@H]3CC[C@]12C` [3-epi-20-hydroxyecdysone], the “Activation of DHR38 in the GAL4-LBD system” value in data set [1] is given as “can be activated”.

For `CNC(=O)Oc1cccc2ccccc12` [Carbaryl], the Solubility entry in data set [2] is on record as “water”.

For `COc1cc2c(c(OC)c1OC)-c1ccc(OC)c(=O)cc1[C@@H](NC(C)=O)CC2` [Colchicine], in data set [3], the “Resistance of nhr-8 mutant to the compound” value is recorded as “reduced resistance”. The Solubility entry in data set [2] is “ethanol”.

As to `Clc1ccc(C(c2ccc(Cl)cc2)C(Cl)(Cl)Cl)cc1` [DDT], the Cyp6g1 induction result in data set [4] is recorded as “low level”. The “Speed of death at a fixed concentration of DDT, DHR96 homozygotes vs wild type flies” value in data set [5] (100 ng/μl DDT, mortality scored every hour for 10 hours) was “died more rapidly”. Besides, the “Sensitivity to DDT (survival after a fixed time at varying concentrations), DHR96 mutants compared to control animals” value in data set [5] (adult DHR96^16A or DHR96^E25 flies vs Canton S, 0.78 to 100 ng/μl DDT, scored 10 hours later) is “more sensitive”. For the same molecule, in data set [5] (setting [9]), the “Sensitivity to DDT treatment, original DHR96E25 mutant line vs Canton S” value is “more sensitive” and the “Sensitivity to DDT, outcrossed DHR96E25 line vs Canton S” value is listed as “no such sensitivity”. For the same molecule, in data set [2], the Solubility result is given as “ethanol”.

Turning to `COP(=S)(OC)Oc1ccc([N+](=O)[O-])cc1` [Methyl parathion], in data set [2], the Solubility result was “acetone”.

Take `O=[N+]([O-])/C=C1\NCCCS1` [Nithiazine]: the Solubility result in data set [2] is listed as “water”.

On to `CC(=O)[C@H]1[C@H](C#N)C[C@H]2[C@@H]3CC=C4C[C@@H](O)CC[C@]4(C)[C@H]3CC[C@@]21C` [PCN], for which the Solubility result in data set [2] is given as “DMSO”.

In the case of `C[n+]1ccc(-c2cc[n+](C)cc2)cc1` [Paraquat], the Solubility entry in data set [2] is recorded as “water”.

In the case of `CO[C@H]1/C=C/O[C@@]2(C)Oc3c(C)c(O)c4c(O)c(c(/C=N/N5CCN(C)CC5)c(O)c4c3C2=O)NC(=O)/C(C)=C\C=C\[C@H](C)[C@H](O)[C@@H](C)[C@@H](O)[C@@H](C)[C@H](OC(C)=O)[C@@H]1C` [Rifampicin], the Solubility result in data set [2] is recorded as “DMSO”.

As to `CCN(CC)C(=S)[S-].O.O.O.[Na+]` [Sodium diethyldithiocarbamate trihydrate], in data set [2], the Solubility entry is on record as “water”.

Regarding `CCN(CC)CCCC(C)Nc1ccnc2cc(Cl)ccc12` (stereo not shown) [chloroquine], the “Resistance of nhr-8 mutant to the compound” value in data set [3] is given as “reduced resistance”.

On to `CCC1(c2ccccc2)C(=O)NC(=O)NC1=O` [phenobarbital], for which, in data set [6], the “Cyp6a2 and Cyp6a8 transcription in the DHR96 mutant” value is recorded as “no change in expression”; the “Cyp6a2 and Cyp6a8 transcription in wild type animals” value is on record as “dramatic induction”.

With `CCc1ccc(C(=O)NN(C(=O)c2cc(C)cc(C)c2)C(C)(C)C)cc1` [tebufenozide], in data set [7], the “Sensitivity of the outcrossed DHR96E25 mutant to tebufenozide (surviving adult flies)” value is reported as “slight sensitivity”. The “Activation of GAL4-DHR96 (UAS-lacZ reporter gene expression)” value in data set [8] was “activated; also recorded: reproducible and distinct pattern of activation”.

With `C[C@H]([C@H](O)CCC(C)(C)O)[C@H]1CC[C@@]2(O)C3=CC(=O)[C@@H]4C[C@@H](O)[C@@H](O)C[C@]4(C)[C@H]3CC[C@]12C` [α-ecdysone], in data set [1], the “Activation of DHR38 in the GAL4-LBD system” value is listed as “can be activated”.
